Experimental data published in US5464836A, “Benzophenones having an antifungal activity” (Ministero dell'Universita` e della Ricerca Scientifica e …, priority 1991, dated 1995).

Tested on: Helminthosporium teres
Test: preventive fungicidal activity on Helminthosporium teres (barley leaves)
Format: in vivo
Settings: barley leaves cv. Arna, 12 days, scale 100 (healthy plant) to 0 (completely infected plant)
Method: Determination of the preventive fungicidal activity on Helminthosporium teres. Barley leaves cv. Arna, cultivated in a vase in a conditioned environment, were treated by spraying both sides with the products being tested (compounds 1 and 2) in a 20% hydroacetonic solution of acetone (vol./vol.). After remaining 2 days in the conditioned environment at 20° C. and 70% R.H., the plants were sprayed on both sides of the leaves with an aqueous suspension of Helminthosporium teres (250.000 conidii per cc.). After 24 hours in a humidity saturated atmosphere, at 21° C., the plants were kept in a conditioned environment for the incubation of the fungus. At the end of this period (12 days), the gravity of infection was estimated by observation, with a scale of indexes ranging from 100 (healthy plant) to 0 (completely infected plant).

Structure (SMILES) | % Control Helminthosporium (dosage 125 ppm) | % Control Helminthosporium (dosage 500 ppm)
CC(Cc1cccc(C(=O)c2ccc(Cl)cc2)c1)CN1C[C@@H](C)O[C@@H](C)C1 (stereo partly shown) [Compound 2, 4-[3-(3-(4-chlorobenzoyl)phenyl)-2-methylpropyl]-2,6-dimethylmorpholine] | 100% | 100%
CC(Cc1cccc(C(=O)c2ccccc2)c1)CN1C[C@@H](C)O[C@@H](C)C1 (stereo partly shown) [Compound 1, 4-[3-(3-benzoylphenyl)-2-methylpropyl]-2,6-dimethylmorpholine] | 100% | 100%
